The test system of this assay is progranulin (PGRN). Nature of the assay: progranulin induction cellular assay (PGRN assay), ELISA-based readout. The note with it: PGRN assay as described: mouse primary microglia, primary cortical neurons and BV-2 cell lines; secreted mouse PGRN in medium by ELISA; cell type for Table B not specified. The method, then:
Cellular Assays: To measure the efficacy of compounds, a progranulin induction cellular assay in mouse primary microglia (pMG), primary cortical neurons, and BV-2 cell lines is used. BV-2 cells are split the day before plating into a 96 well plate format at approximately 80%. Cells should be plated the day before and allowed for 1 hour attachment period and for 16 hour incubation. Levels of progranulin secreted into the cell culture medium or retained in the cell lysate can be quantified using an ELISA-based readout and measurement of secreted mouse PGRN in the medium was assessed by the methodology published by Ghidoni et al. 2012. Standard ELISA kits to measure PGRN are available from vendors such as Adipogen, R&D, and Biovendor.
Table B below presents the results of a PGRN assay as described above.
(In general: In an ELISA, binding on a coated surface is turned into a signal by an enzyme label.)

Among the data in patent US20230115534A1 (ARKUDA THERAPEUTICS, priority 2019, published 2023) are EC50 values, retold here.

Each structure is given as a SMILES string. Where a name gives a salt, the structure may show the parent alone.

Consider `N[C@H]1CC[C@H]1OC(=O)N1CCc2ccccc2[C@@H]1c1ccc(F)cc1` (single isomer, unassigned) [Compound 4037], for which the concentration for a half-maximal effect (EC50) (commonly the midpoint of the concentration-response curve) was over 10000 nM. To `N[C@@H]1CC[C@@H]1OC(=O)N1CCc2ccccc2[C@@H]1c1ccc(F)cc1` (single isomer, unassigned) [Compound 4038] belongs 1690 nM; to `N[C@@H]1CC[C@H]1OC(=O)N1CCc2ccccc2[C@@H]1c1ccc(F)cc1` (single isomer, unassigned) [Compound 4039, hydrochloride], 1210 nM; to `N[C@H]1CCC1OC(=O)N1CCc2ccccc2[C@@H]1c1ccc(F)cc1` (single isomer, unassigned) [Compound 4040, hydrochloride], 2330 nM. To `NC12CC(NC(=O)N3CCc4ccccc4C3c3ccc(F)cc3F)(C1)C2` (single isomer, unassigned) [Compound 4137, N-(3-aminobicyclo[1.1.1]pentan-1-yl)-1-(2,4-difluorophenyl)-3,4-dihydroisoquinoline-2(1H)-carboxamide] belongs 91 nM.

`NC12CC(NC(=O)N3CCc4ccccc4C3c3ccc(F)cc3F)(C1)C2` (single isomer, unassigned) [Compound 4138, N-(3-aminobicyclo[1.1.1]pentan-1-yl)-1-(2,4-difluorophenyl)-3,4-dihydroisoquinoline-2(1H)-carboxamide]: the EC50 came to 5590 nM. To `N[C@@H]1C[C@H](NC(=O)N2CCc3ccccc3[C@@H]2c2ccc(F)cc2)CC(F)(F)C1` (single isomer, unassigned) [Compound 4141] belongs 201 nM. `N[C@H]1C[C@@H](NC(=O)N2CCc3ccccc3[C@@H]2c2ccc(F)cc2)CC(F)(F)C1` (single isomer, unassigned) [Compound 4142]: the 50% effective concentration (EC50) was found to be 810 nM. To `NC[C@]1(O)C[C@@H](C(=O)N2CCc3ccccc3[C@@H]2c2ccc(F)cc2)C1` (single isomer, unassigned) [Compound 4153] belongs 130 nM. To `NC1CCC1COC(=O)N1CCc2ccccc2[C@@H]1c1ccc(F)cc1` (stereo in doubt) [Compound 4062, ((1R,2R)-2-aminocyclobutyl)methyl (S)-1-(4-fluorophenyl)-3,4-dihydroisoquinoline-2(1H)-carboxylate] belongs 334 nM; to `NC12CC(OC(=O)N3CCc4ccccc4[C@@H]3c3ccc(F)cc3)(C1)C2` [Compound 4001, 3-Aminobicyclo[1.1.1]pentan-1-yl (S)-1-(4-fluorophenyl)-3,4-dihydroisoquinoline-2(1H)-carboxylate], 440 nM; to `NC12CC(NC(=O)N3CCc4ccccc4[C@@H]3c3ccc(F)cc3)(C1)C2` [Compound 4002, (S)—N-(3-aminobicyclo[1.1.1]pentan-1-yl)-1-(4-fluorophenyl)-3,4-dihydroisoquinoline-2(1H)-carboxamide], 266 nM.

The molecule `NC12CC(NC(=O)N3CCc4ccccc4[C@H]3c3ccc(F)cc3)(C1)C2` [Compound 4003, (R)—N-(3-aminobicyclo[1.1.1]pentan-1-yl)-1-(4-fluorophenyl)-3,4-dihydroisoquinoline-2(1H)-carboxamide] registered a concentration for a half-maximal effect (EC50) of 720 nM. To `CNC12CC(NC(=O)N3CCc4ccccc4[C@@H]3c3ccc(F)cc3)(C1)C2` [Compound 4004, (S)-1-(4-fluorophenyl)-N-(3-(methylamino)bicyclo[1.1.1]pentan-1-yl)-3,4-dihydroisoquinoline-2(1H)-carboxamide] belongs 225 nM; to `C#CCNC12CC(NC(=O)N3CCc4ccccc4[C@@H]3c3ccc(F)cc3)(C1)C2` [Compound 4005, (S)-1-(4-fluorophenyl)-N-(3-(prop-2-yn-1-ylamino)bicyclo[1.1.1]pentan-1-yl)-3,4-dihydroisoquinoline-2(1H)-carboxamide 2,2,2-trifluoroacetate], over 10000 nM. To `C#CCNC12CC(N(CC#C)C(=O)N3CCc4ccccc4[C@@H]3c3ccc(F)cc3)(C1)C2` [Compound 4006, (S)-1-(4-fluorophenyl)-N-(prop-2-yn-1-yl)-N-(3-(prop-2-yn-1-ylamino)bicyclo[1.1.1]pentan-1-yl)-3,4-dihydroisoquinoline-2(1H)-carboxamide] belongs over 10000 nM; to `CS(=O)(=O)CCNC12CC(NC(=O)N3CCc4ccccc4[C@@H]3c3ccc(F)cc3)(C1)C2` [Compound 4007, (S)-1-(4-fluorophenyl)-N-(3-((2-(methylsulfonyl)ethyl)amino)bicyclo[1.1.1]pentan-1-yl)-3,4-dihydroisoquinoline-2(1H)-carboxamide 2,2,2-trifluoroacetate], over 10000 nM; to `CS(=O)(=O)CCNC12CC(N(CCS(C)(=O)=O)C(=O)N3CCc4ccccc4[C@@H]3c3ccc(F)cc3)(C1)C2` [Compound 4008, (S)-1-(4-fluorophenyl)-N-(2-(methylsulfonyl)ethyl)-N-(3-((2-(methylsulfonyl)ethyl)amino)bicyclo[1.1.1]pentan-1-yl)-3,4-dihydroisoquinoline-2(1H)-carboxamide], over 10000 nM. To `CNC12CC(N(C)C(=O)N3CCc4ccccc4[C@@H]3c3ccc(F)cc3)(C1)C2` [Compound 4009, (S)-1-(4-fluorophenyl)-N-methyl-N-(3-(methylamino)bicyclo[1.1.1]pentan-1-yl)-3,4-dihydroisoquinoline-2(1H)-carboxamide] belongs over 10000 nM; to `CN(C(=O)N1CCc2ccccc2[C@@H]1c1ccc(F)cc1)C12CC(N)(C1)C2` [Compound 4010, (S)—N-(3-aminobicyclo[1.1.1]pentan-1-yl)-1-(4-fluorophenyl)-N-methyl-3,4-dihydroisoquinoline-2(1H)-carboxamide], over 10000 nM; to `C#CCOCCNC12CC(NC(=O)N3CCc4ccccc4[C@@H]3c3ccc(F)cc3)(C1)C2` [Compound 4011, (S)-1-(4-fluorophenyl)-N-(3-((2-(prop-2-yn-1-yloxy)ethyl)amino)bicyclo[1.1.1]pentan-1-yl)-3,4-dihydroisoquinoline-2(1H)-carboxamide], 5160 nM. Regarding `O=C(NC12CC(N3CCCC3)(C1)C2)N1CCc2ccccc2[C@@H]1c1ccc(F)cc1` [Compound 4012, (S)-1-(4-fluorophenyl)-N-(3-(pyrrolidin-1-yl)bicyclo[1.1.1]pentan-1-yl)-3,4-dihydroisoquinoline-2(1H)-carboxamide], a half-maximal effect (EC50) was put at 7810 nM. To `O=C(NC12CC(N3CCOCC3)(C1)C2)N1CCc2ccccc2[C@@H]1c1ccc(F)cc1` [Compound 4013, (S)-1-(4-fluorophenyl)-N-(3-morpholinobicyclo[1.1.1]pentan-1-yl)-3,4-dihydroisoquinoline-2(1H)-carboxamide] belongs over 10000 nM; to `O=C(OC12CC(NCC(F)(F)F)(C1)C2)N1CCc2ccccc2[C@@H]1c1ccc(F)cc1` [Compound 4014, 3-((2,2,2-trifluoroethyl)amino)bicyclo[1.1.1]pentan-1-yl (S)-1-(4-fluorophenyl)-3,4-dihydroisoquinoline-2(1H)-carboxylate], over 10000 nM. To `CC(=O)NC12CC(OC(=O)N3CCc4ccccc4[C@@H]3c3ccc(F)cc3)(C1)C2` [Compound 4015, 3-Acetamidobicyclo[1.1.1]pentan-1-yl (S)-1-(4-fluorophenyl)-3,4-dihydroisoquinoline-2(1H)-carboxylate] belongs over 10000 nM.
